In patent publication US12344631B2, “C17 polar-substituted heteroaromatic synthetic triterpenoids and methods of use thereof” (REATA PHARMACEUTICALS, INC., priority 2019, dated 2025):

How the values were obtained:
RAW 264.7 cells = assay: Nitric oxide suppression assay (IFNγ-induced NO production); type: cell-based, mouse; settings: for IC50: Mus musculus, RAW264.7, RAW 264.7 cells, 2 h pretreatment, 20 ng/mL interferon gamma 24 h, nitrite by Griess, read-out: NO IC50 (nM) (Mean ± SD); for NO IC50 Relative to RTA 402 (fold) (Mean ± SD): average of ratios from replicate experiments, benchmark RTA 402
Experimental: Tissue Culture. RAW 264.7, a mouse macrophage cell line, was obtained from American Type Culture Collection (Manassas VA) and maintained in the log phase of growth in Roswell Park Memorial Institute Medium 1640 (RPMI 1640) supplemented with 10% heat inactivated fetal bovine serum (FBS) and 1% penicillin-streptomycin. Cells were cultured and maintained in a humidified incubator at 37° C. under 5% CO2. Cells were sub-cultured every 3 days. […] All cell culture supplies were obtained from Life Technologies (Grand Island, NY) and VWR (Radnor, PA). Nitric Oxide Suppression Assay. RAW 264.7 cells were plated 1 day in advance of experimental treatments at a concentration of 30,000 cells per well onto Falcon-96 well clear bottom plates (Corning, NY) in a total volume of 200 μL per well using RPMI 1640 supplemented with 0.5% fetal bovine serum and 1% penicillin-streptomycin. The next day, cells were pretreated with compounds serially diluted from 1000× stocks. All compounds were dissolved in dimethyl sulfoxide (DMSO) at 10 mM stock solutions. Compounds were subsequently diluted in DMSO and RPMI 1640. Each well received a final concentration of 0.1% DMSO. Cells were pretreated for 2 hours and incubation at 37° C., followed by treatment with 20 ng/mL of interferon gamma (R&D Systems, Minneapolis, MN) per well for 24 hours. […] Afterwards, 50 μL of cell culture supernatant was transferred from each well into a new Falcon-96 well clear bottom plate. […] Afterwards, air bubbles were removed using ethanol vapor and absorbance was measured using a Spectramax M2e plate reader with a wavelength set to 525 nm. Viability was assessed using WST-1 cell proliferation reagent from Roche (Basel, Switzerland). After media was removed for the Nitric Oxide suppression assay, 15 μL of WST-1 reagent was added to each well of cells. Plates were briefly mixed on an orbital shaker and the cells were incubated at 37° C. for 30 minutes. Absorbance was measured using a Spectramax M2e plate reader with wavelengths set to 440 nm and 700 nm. For the ability of compounds to suppress the increase in nitric oxide release caused by interferon gamma, the absolute amount of nitrite that was produced in each well was extrapolated from the nitrite standards using a linear regression fit. All values were then normalized to the DMSO-interferon gamma treated wells and plotted as percent nitric oxide. IC50 values were calculated with a dependence on WST1 viability using Excel and/or GraphPad Prism (San Diego, CA).

[1] = tested on: AML-12 hepatocyte cell line; assay: Glutathione assay (total glutathione, GSH-Glo); type: cell-based, mouse; settings: for EC50: Mus musculus, AML12, AML-12 cells, 24 hours, total glutathione, read-out: GSH EC50 (nM) (Mean ± SD); for GSH EC50 Relative to RTA 402 (fold) (Mean ± SD): benchmark RTA 402
Experimental: The effect of compound treatment on total glutathione levels was evaluated in the mouse AML-12 hepatocyte cell line. Glutathione—a tripeptide consisting of cysteine, glutamate, and glycine—is the major thiol-containing protein within the cell and regulates cellular redox balance. Glutathione also plays important roles in detoxification, protein glutathionylation, and iron-sulfur cluster biogenesis (Bachhawat and Yadav, 2018). Nrf2 regulates the expression of many genes involved in glutathione synthesis and metabolism, including both subunits of glutamate cysteine ligase (GCL), the enzyme that catalyzes the rate limiting step of glutathione biosynthesis (Thimmulappa et al., 2002). […] The next day, cells were treated with vehicle (DMSO) or test compound (0.03 nM to 1000 nM). Each well received a final concentration of 0.1% DMSO. Cells were incubated at 37° C., 5% CO2 for 24 hours. Total glutathione concentrations were measured using the GSH-Glo Glutathione Assay kit (Promega) according to the manufacturer's instructions. Briefly, a standard curve was prepared by serially diluting the provided glutathione solution. […] After a 30-minute incubation at room temperature, 100 μL of Luciferin detection reagent was added to all sample and standard wells and incubated for 15 minutes. Luminescence was measured using a PHERAstar plate reader. The EC50 value was determined using Excel and GraphPad Prism software. The basal concentration of glutathione was set to 0% and the highest concentration of glutathione produced following treatment with a test compound was set to 100% and a dose-response curve was generated. The dose-response curve was fit using nonlinear regression analysis and used to extrapolate the EC50 value.

[2] = tested on: AREc32 reporter cell line (antioxidant response element of rat Gsta2, Nrf2 target gene); assay: AREc32 luciferase reporter activation; type: cell-based, human; settings: for AREc32 EC2X Relative to RTA 402 (fold) (Mean ± SD): average of ratios from replicate experiments, benchmark RTA 402; for EC (2-fold): human, Arec32, 19 h, concentration increasing luminescence signal 2-fold above vehicle, nineteen hours, read-out: AREc32 EC2X (nM) (Mean ± SD)
Experimental: […] The effect of several compounds disclosed herein on luciferase reporter activation was assessed in the AREc32 reporter cell line (see Table 10 and Table 11). This cell line is derived from human breast carcinoma MCF-7 cells and is stably transfected with a luciferase reporter gene under the transcriptional control of eight copies of the antioxidant response element from the rat Gsta2 gene, an Nrf2 target gene ([…] et al., 1990). […] Twenty-four hours after plating, cells were treated with vehicle (DMSO) or test compounds at concentrations ranging from 0.03 to 1000 nM for nineteen hours. Media was removed and 100 μL of 1:1 mixture of the One-Glo Luciferase assay reagent and culture medium was added to each well. After incubation for 5 min at room temperature, the luminescence signal was measured on a PHERAstar plate reader. The EC2X value was determined using Excel and GraphPad Prism software. The fold increase in luminescence signal for cells treated with each concentration of compound relative to cells treated with vehicle was determined and a dose-response curve was generated. The dose-response curve was fit using nonlinear regression analysis and used to extrapolate the EC2X value.

| Compound | IC50 (RAW 264.7 cells) [nM] | NO IC50 Relative to RTA 402 (fold) (Mean ± SD) (RAW 264.7 cells) | EC50 [1] [nM] | GSH EC50 Relative to RTA 402 (fold) (Mean ± SD) [1] | AREc32 EC2X Relative to RTA 402 (fold) (Mean ± SD) [2] | EC (2-fold) [2] [nM] | AREc32 Relative to CC in Same Experiment (Mean ± SD) ([2]; comparison compound CC2, average of ratios from experiments with direct comparisons) |
| --- | --- | --- | --- | --- | --- | --- | --- |
| CC1(C)CC[C@]2(c3noc(CCN)n3)CC[C@]3(C)[C@H](C(=O)C=C4[C@@]5(C)C=C(C#N)C(=O)C(C)(C)[C@@H]5CC[C@]43C)[C@@H]2C1 [Compound T3] | 2.6 | 0.69 ± 0.22 | 1.45 ± 0.28 | 0.54 ± 0.06 | 0.91 ± 0.29 | 9.21 ± 3.66 |  |
| CC1(C)CC[C@]2(c3noc(CO)n3)CC[C@]3(C)[C@H](C(=O)C=C4[C@@]5(C)C=C(C#N)C(=O)C(C)(C)[C@@H]5CC[C@]43C)[C@@H]2C1 [Compound T4] | 1.82 | 0.48 ± 0.13 | 2.46 ± 1.8 | 0.89 ± 0.61 | 1.04 ± 0.02 | 10.5 ± 1.03 |  |
| CC1(C)CC[C@]2(c3noc(CCO)n3)CC[C@]3(C)[C@H](C(=O)C=C4[C@@]5(C)C=C(C#N)C(=O)C(C)(C)[C@@H]5CC[C@]43C)[C@@H]2C1 [Compound T5] | 1.57 | 0.42 ± 0.15 | 1.77 ± 0.98 | 0.65 ± 0.32 | 1.16 ± 0.19 | 11.7 ± 2.8 |  |
| COCCc1nc([C@]23CCC(C)(C)C[C@H]2[C@H]2C(=O)C=C4[C@@]5(C)C=C(C#N)C(=O)C(C)(C)[C@@H]5CC[C@@]4(C)[C@]2(C)CC3)no1 [Compound T6] | 2.95 ± 0.11 | 0.79 ± 0.29 | 2.9 ± 0.96 | 1.07 ± 0.28 | 1.77 ± 0.15 | 17.66 ± 0.1 |  |
| CC1(C)CC[C@]2(c3nnn(CCO)n3)CC[C@]3(C)[C@H](C(=O)C=C4[C@@]5(C)C=C(C#N)C(=O)C(C)(C)[C@@H]5CC[C@]43C)[C@@H]2C1 [Compound T7] | 1.13 ± 0.18 | 0.43 ± 0.13 | 2.87 ± 3.17 | 0.80 ± 0.59 | 1.10 ± 0.33 | 10.5 ± 3.66 |  |
| CC1(C)CC[C@]2(c3nnn(CCF)n3)CC[C@]3(C)[C@H](C(=O)C=C4[C@@]5(C)C=C(C#N)C(=O)C(C)(C)[C@@H]5CC[C@]43C)[C@@H]2C1 [Compound T10] | 2.2 ± 0.2 | 1.62 ± 0.16 | 1.45 ± 0.17 | 1.14 ± 0.03 | 2.41 ± 0.98 | 28.4 ± 9.42 |  |
| CC1(C)CC[C@]2(c3nc(CCO)no3)CC[C@]3(C)[C@H](C(=O)C=C4[C@@]5(C)C=C(C#N)C(=O)C(C)(C)[C@@H]5CC[C@]43C)[C@@H]2C1 [Compound T13] | 0.56 | 0.22 ± 0.07 | 2.04 ± 1.94 | 0.55 ± 0.33 | 0.37 ± 0.04 | 3.53 ± 0.98 | 0.44 ± 0.07 |
